Data set [1] deals with Blood. The data set can be described thus: Drug metabolism in human whole blood treated with 20 uM RRx-001 assessed as compound formation by LC-MS/MS method. Type of data set: ADME, tissue-based.
Data set [2] deals with Blood. The data set can be described thus: Retention time in human whole blood in presence of 0.1% formic acid in acetonitrile at 20 uM by LC-MS/MS method. Type of data set: ADME, tissue-based.
Data set [3] concerns Blood. The data set can be described thus: Retention time in human whole blood in presence of 0.1% formic acid in water at 20 uM by LC-MS/MS method. Type of data set: ADME, tissue-based.
The subject of data set [4] is Blood. The data set can be described thus: Retention time in rat whole blood in presence of 0.1% formic acid in water at 20 uM by LC-MS/MS method. Type of data set: ADME, tissue-based.
Data set [5] has as its system Blood. The data set can be described thus: Drug metabolism in rat whole blood treated with 20 uM RRx-001 assessed as compound formation by LC-MS/MS method. Type of data set: ADME, tissue-based.
Data set [6] relates to Blood. The data set can be described thus: Retention time in rat whole blood in presence of 0.1% formic acid in acetonitrile at 20 uM by LC-MS/MS method. Type of data set: ADME, tissue-based.
Data set [7] can be described thus: Drug level assessed as compound formation from RRx-001 after 1 hr in presence of reduced GSH at pH 7.8 by LC-MS/MS method. The settings on record: pH 7.8, 1 h. Type of data set: physicochemical.

The structures appear in SMILES notation.

Consider `N[C@@H](CSCC(=O)N1CC([N+](=O)[O-])C1)C(=O)O`, for which the Drug metabolism entry in the data set with Blood [1] and in the data set with Blood [5] was “metabolite_detected” throughout. Moreover, the Retention_time is reported as 4.3 min in the data set with Blood [2], 4.7 min in the data set with Blood [3], 4.7 min in the data set with Blood [4] and 4.3 min in the data set on Blood [6].

On to `N[C@@H](CSCC(=O)N1CC([N+](=O)[O-])([N+](=O)[O-])C1)C(=O)O`, for which the Drug metabolism entry (in the data set on Blood [1]; in the data set with Blood [5]; in data set [7]) was “metabolite_detected” throughout. Besides, the Retention_time is 7.6 min with Blood [2], 7.8 min with Blood [3], 7.8 min in the data set with Blood [4] and 7.6 min in the data set with Blood [6].

The record behind these values is ChEMBL document CHEMBL3526110, “Preclinical evaluation of the metabolism and disposition of RRx-001, a novel investigative anticancer agent” (Drug Metab Dispos, 2012).
